Source: the NIST ThermoML archive (doi:10.1021/je2010209)

Experiment: xn = mol fraction of the nth substance listed
Details: 101 kPa, Liquid; for speed of sound: Sing-around technique in a fixed-path interferometer; for mass density: Vibrating tube method

COCCOCCOCCO [2-[2-(2-methoxyethoxy)ethoxy]ethanol] + CCCCn1cc[n+](C)c1.F[B-](F)(F)F
Details	mass density [kg/m3]	speed of sound [m/s]
288.15 K, x2 = 0	1050.1	1470
288.15 K, x2 = 0.024	1056.87	1484
288.15 K, x2 = 0.107	1076.66	1510
288.15 K, x2 = 0.2241	1099.67	1541
288.15 K, x2 = 0.3275	1118.29	1555
288.15 K, x2 = 0.4285	1135.35	1564
288.15 K, x2 = 0.5067	1147.58	1570
288.15 K, x2 = 0.6282	1164.47	1575
288.15 K, x2 = 0.7072	1174.32	1581
288.15 K, x2 = 0.8256	1188.11	1584
288.15 K, x2 = 0.913	1197.84	1585
293.15 K, x2 = 0	1045.75	1452
293.15 K, x2 = 0.024	1052.52	1466
293.15 K, x2 = 0.107	1072.57	1492
293.15 K, x2 = 0.2241	1095.95	1519
293.15 K, x2 = 0.3275	1114.5	1539
293.15 K, x2 = 0.4285	1131.41	1550
293.15 K, x2 = 0.5067	1143.6	1555
293.15 K, x2 = 0.6282	1160.74	1561
293.15 K, x2 = 0.7072	1170.79	1568
293.15 K, x2 = 0.8256	1184.68	1572
293.15 K, x2 = 0.913	1194.26	1573
298.15 K, x2 = 0	1041.32	1436
298.15 K, x2 = 0.024	1048.15	1450
298.15 K, x2 = 0.107	1068.36	1475
298.15 K, x2 = 0.2241	1091.87	1503
298.15 K, x2 = 0.3275	1110.48	1524
298.15 K, x2 = 0.4285	1127.42	1533
298.15 K, x2 = 0.5067	1139.64	1541
298.15 K, x2 = 0.6282	1156.88	1548
298.15 K, x2 = 0.7072	1167	1555
298.15 K, x2 = 0.8256	1181.03	1560
298.15 K, x2 = 0.913	1190.69	1560
303.15 K, x2 = 0	1036.84	1421
303.15 K, x2 = 0.024	1043.76	1435
303.15 K, x2 = 0.107	1064.17	1458
303.15 K, x2 = 0.2241	1087.79	1488
303.15 K, x2 = 0.3275	1106.46	1509
303.15 K, x2 = 0.4285	1123.48	1519
303.15 K, x2 = 0.5067	1135.77	1528
303.15 K, x2 = 0.6282	1153.12	1534
303.15 K, x2 = 0.7072	1163.33	1543
303.15 K, x2 = 0.8256	1177.39	1548
303.15 K, x2 = 0.913	1187	1549
308.15 K, x2 = 0	1032.27	1408
308.15 K, x2 = 0.024	1039.37	1421
308.15 K, x2 = 0.107	1060.13	1444
308.15 K, x2 = 0.2241	1083.76	1475
308.15 K, x2 = 0.3275	1102.44	1494
308.15 K, x2 = 0.4285	1119.54	1507
308.15 K, x2 = 0.5067	1131.91	1516
308.15 K, x2 = 0.6282	1149.37	1523
308.15 K, x2 = 0.7072	1159.63	1530
308.15 K, x2 = 0.8256	1173.68	1536
308.15 K, x2 = 0.913	1183.36	1538
313.15 K, x2 = 0	1027.76	1393
313.15 K, x2 = 0.024	1034.9	1406
313.15 K, x2 = 0.107	1055.73	1431
313.15 K, x2 = 0.2241	1079.59	1461
313.15 K, x2 = 0.3275	1098.41	1483
313.15 K, x2 = 0.4285	1115.62	1493
313.15 K, x2 = 0.5067	1128.04	1503
313.15 K, x2 = 0.6282	1145.63	1511
313.15 K, x2 = 0.7072	1155.93	1518
313.15 K, x2 = 0.8256	1170.13	1524
313.15 K, x2 = 0.913	1179.9	1527
318.15 K, x2 = 0	1023.3	1376
318.15 K, x2 = 0.024	1030.54	1390
318.15 K, x2 = 0.107	1051.51	1415
318.15 K, x2 = 0.2241	1075.43	1447
318.15 K, x2 = 0.3275	1094.37	1468
318.15 K, x2 = 0.4285	1111.73	1480
318.15 K, x2 = 0.5067	1124.25	1490
318.15 K, x2 = 0.6282	1141.8	1500
318.15 K, x2 = 0.7072	1152	1506
318.15 K, x2 = 0.8256	1166.14	1513
318.15 K, x2 = 0.913	1176	1516

COCCO [2-methoxyethan-1-ol] + CCCCn1cc[n+](C)c1.F[B-](F)(F)F
Details	mass density [kg/m3]	speed of sound [m/s]
288.15 K, x2 = 0	969.794	1380
288.15 K, x2 = 0.0509	1000.6	1411
288.15 K, x2 = 0.1092	1030.06	1438
288.15 K, x2 = 0.2052	1068.45	1474
288.15 K, x2 = 0.3071	1099.91	1500
288.15 K, x2 = 0.4025	1123.36	1521
288.15 K, x2 = 0.5116	1145.2	1539
288.15 K, x2 = 0.6257	1164.11	1553
288.15 K, x2 = 0.7153	1176.88	1565
288.15 K, x2 = 0.8088	1188.61	1574
288.15 K, x2 = 0.9155	1199.86	1582
293.15 K, x2 = 0	965.063	1367
293.15 K, x2 = 0.0509	996.158	1394
293.15 K, x2 = 0.1092	1025.74	1422
293.15 K, x2 = 0.2052	1064.33	1460
293.15 K, x2 = 0.3071	1095.87	1486
293.15 K, x2 = 0.4025	1119.42	1508
293.15 K, x2 = 0.5116	1141.38	1527
293.15 K, x2 = 0.6257	1160.35	1542
293.15 K, x2 = 0.7153	1173.17	1554
293.15 K, x2 = 0.8088	1184.96	1563
293.15 K, x2 = 0.9155	1196.25	1571
298.15 K, x2 = 0	960.447	1351
298.15 K, x2 = 0.0509	991.715	1378
298.15 K, x2 = 0.1092	1021.41	1406
298.15 K, x2 = 0.2052	1060.08	1446
298.15 K, x2 = 0.3071	1091.76	1472
298.15 K, x2 = 0.4025	1115.42	1494
298.15 K, x2 = 0.5116	1137.55	1514
298.15 K, x2 = 0.6257	1156.59	1530
298.15 K, x2 = 0.7153	1169.47	1542
298.15 K, x2 = 0.8088	1181.31	1551
298.15 K, x2 = 0.9155	1192.64	1560
303.15 K, x2 = 0	955.825	1337
303.15 K, x2 = 0.0509	987.145	1361
303.15 K, x2 = 0.1092	1017.07	1391
303.15 K, x2 = 0.2052	1056.15	1431
303.15 K, x2 = 0.3071	1087.96	1457
303.15 K, x2 = 0.4025	1111.59	1480
303.15 K, x2 = 0.5116	1133.65	1501
303.15 K, x2 = 0.6257	1152.84	1517
303.15 K, x2 = 0.7153	1165.77	1530
303.15 K, x2 = 0.8088	1177.66	1539
303.15 K, x2 = 0.9155	1189.04	1548
308.15 K, x2 = 0	951.214	1321
308.15 K, x2 = 0.0509	982.765	1344
308.15 K, x2 = 0.1092	1012.72	1375
308.15 K, x2 = 0.2052	1051.85	1415
308.15 K, x2 = 0.3071	1083.79	1443
308.15 K, x2 = 0.4025	1107.66	1467
308.15 K, x2 = 0.5116	1129.9	1488
308.15 K, x2 = 0.6257	1149.1	1505
308.15 K, x2 = 0.7153	1162.09	1517
308.15 K, x2 = 0.8088	1174.01	1526
308.15 K, x2 = 0.9155	1185.43	1536
313.15 K, x2 = 0	946.562	1304
313.15 K, x2 = 0.0509	978.381	1328
313.15 K, x2 = 0.1092	1008.49	1359
313.15 K, x2 = 0.2052	1047.68	1400
313.15 K, x2 = 0.3071	1079.71	1430
313.15 K, x2 = 0.4025	1103.68	1453
313.15 K, x2 = 0.5116	1126.04	1475
313.15 K, x2 = 0.6257	1145.37	1492
313.15 K, x2 = 0.7153	1158.41	1505
313.15 K, x2 = 0.8088	1170.38	1514
313.15 K, x2 = 0.9155	1181.84	1525
318.15 K, x2 = 0	941.864	1287
318.15 K, x2 = 0.0509	973.683	1311
318.15 K, x2 = 0.1092	1004.01	1343
318.15 K, x2 = 0.2052	1043.46	1383
318.15 K, x2 = 0.3071	1075.71	1415
318.15 K, x2 = 0.4025	1099.79	1440
318.15 K, x2 = 0.5116	1122.25	1461
318.15 K, x2 = 0.6257	1141.63	1479
318.15 K, x2 = 0.7153	1154.74	1492
318.15 K, x2 = 0.8088	1166.72	1502
318.15 K, x2 = 0.9155	1178.23	1513
